Key:
Format in all cases: cell-based
[1] = test system: APJ–β-arrestin 1 interaction; assay: BRET recruitment of β-arrestin 1 to APJ; settings: for log (τ/KA) / Δlog (τ/KA): APJ-β-arrestin1; for log (τ/KA): Black–Leff operational model; for Δlog (τ/KA): relative to Apelin-13; for Bias factor / Log (Bias): APJ-β-arrestin1 over Ca2+, reference Apelin-13
Description: (§1) To detect the potencies of different peptide ligands for APJ in living cells, real-time kinetic bioluminescence resonance energy transfer (BRET) assays were carried out as follows. HEK293 cells were grown to 80–90% confluence in 24-well plates and transiently transfected with various Rluc-, EYFP-, or Venus-tagged constructs ([Chen et al., 2014]; [Liu et al., 2016]). Approximately 36 h after transfection, the long-acting luciferase substrate EnduRen (E6481, Promega, Beijing Biotech Co., Ltd.) was added to each well at a final concentration of 60 μM and cells were incubated for 2 h at 37°C in a 5% CO2 incubator. BRET experiments were carried out using a Mithras LB941 plate reader (Berthold Technologies, Bad Wildbad, Germany) with three filters: a Rluc filter (400–475 nm), a Venus filter (515–575 nm) and an EGFP filter (500–550 nm) ([Liu et al., 2016]; [Ji et al., 2017]). The BRET ratio was calculated as the ratio of the emission at 535 ± 30 nm to that at 485 ± 20 nm. The results are expressed as the mBRET (mBRET = 1,000 × BRET ratio) ([Pfleger et al., 2006a]; [Pfleger et al., 2006b]). We use high glucose as a negative control group.
(§2) HEK293 cells were transiently co-transfected with the designated Rluc and GFP2 or Venus or EYFP-labeled constructs. Twenty-four hours after transfection, the cells were harvested in phenol red free medium containing 5% FCS in HEPES buffer and seeded in 96 well white microplate coated with poly-D-lysine. After 24 h, cells were washed twice in PBS and re-suspended in PBS containing 0.5 mM MgCl2 and 0.1% glucose. Coelenterazine h substrate was added at a final concentration of 5 μM in the total volume of 50 μL/well. Kinetic-response and dose-response curve of the recruitment of GRKs or β-arrestin 1 and β-arrestin 2 or AP2 to the APJ by six peptides measured by BRET. […] The BRET signals between receptor and GRKs/β-arrestin1 and 2/AP2 were recorded at 10 min (GRK2/5) or 15 min (β-arrestin1 and) or 30 min (AP2) after agonist stimulation. We use high glucose as a control group. BRET assays were performed as described previously ([Xue et al., 2018]). […] This signal is defined as the ligand induced BRET ratio.
(§3) The concentration-response data for the ligands in various assays were analyzed to determine the biases of the ligands for G protein dependent signaling or β-arrestin dependent signaling, according to a previously published method ([Kenakin et al., 2012]; [Hager et al., 2016]; [Hothersall et al., 2017]). Briefly, the concentration-response data for each ligand were fitted to the Black–Leff operation model to obtain the values of τ and K A, using the following equation: Response=[A]^nτ^nEm/[A]^nτ^n+([A]KA)^n where [A] is the concentration of the agonist, E m is the maximal response of the system, n is the transducer slope, and K A and τ describe the affinity and efficacy of the agonist, respectively. In the data fitting, the reparametrized form of the equation proposed by [Kenakin et al. (2012)] was used: Response=Em/1+exp{nln[1+exp(β1)/[A]]−nβ2} where β 1 and β 2 are the natural logarithm of K A and τ, respectively, and E m was set to 1. Thus, for each concentration-response curve, a non-linear regression was performed to fit the above equation to give β 1 and β 2 (as well as n). Log (τ/K A) values (“transduction coefficients”) for each ligand vs. each pathway were obtained. […] The ΔΔlog (τ/K A), or Log (Bias), which is the logarithm of the bias factor for a given pathway over a reference pathway (here, intracellular calcium release), was calculated for each ligand as Δlog (τ/K A)–Δlog (τ/K A)Calcium. The 95% confidence interval (CI) was expressed as the mean ± standard error; Log (Bias) values, whose 95% CI crosses 0, were considered statistically insignificant.
(§4) The data were analyzed using GraphPad Prism v5.0. All the data are presented as the mean ± SEM.

[2] = test system: APJ–β-arrestin 2 interaction; assay: BRET recruitment of β-arrestin 2 to APJ; settings: for log (τ/KA): Black–Leff operational model; for Bias factor / Log (Bias): APJ-β-arrestin 2 over Ca2+, reference Apelin-13; for Log (Bias): footnote a = statistically insignificant
Description: as §1, §2, §3, §4

[3] = test system: β-arrestin 1–AP2 interaction induced by APJ; assay: BRET interaction of β-arrestin 1 and β2-adaptin (AP2) induced by APJ; settings: for log (τ/KA) / Δlog (τ/KA): APJ-β-arrestin1-AP2; for log (τ/KA): Black–Leff operational model; for Δlog (τ/KA): relative to Apelin-13; for Bias factor / Log (Bias): APJ-β-arrestin1-AP2 over Ca2+, reference Apelin-13; for Log (Bias): footnote a = statistically insignificant
Description: as §1, §2, §3, §4

[4] = test system: β-arrestin 2–AP2 interaction induced by APJ; assay: BRET interaction of β-arrestin 2 and β2-adaptin (AP2) induced by APJ; settings: for log (τ/KA) / Δlog (τ/KA): APJ-β-arrestin2-AP2; for log (τ/KA): Black–Leff operational model; for Δlog (τ/KA): relative to Apelin-13; for Bias factor / Log (Bias): APJ-β-arrestin2-AP2 over Ca2+, reference Apelin-13; for Log (Bias): footnote a = statistically insignificant
Description: as §1, §2, §3, §4

Row | Structure (SMILES) | log (τ/KA) [1] | Δlog (τ/KA) [1] | Bias factor [1] | Log (Bias) [1] | log (τ/KA) ([2]; APJ-β-arrestin 2) | Bias factor [2] | Log (Bias) [2] | log (τ/KA) [3] | Δlog (τ/KA) [3] | Bias factor [3] | Log (Bias) [3] | log (τ/KA) [4] | Δlog (τ/KA) [4] | Bias factor [4] | Log (Bias) [4] | also measured
1 | CSCC[C@H](NC(=O)[C@@H](NC(=O)[C@H](CC(C)C)NC(=O)[C@H](CC(N)=O)NC(=O)[C@@H](NC(=O)[C@@H]1CCCN1C(=O)[C@H](CCCNC(=N)N)NC(=O)[C@@H](N)CCC(N)=O)C(C)C)[C@@H](C)O)C(=O)N[C@@H](CCCNC(=N)N)C(=O)N[C@@H](CCCNC(=N)N)C(=O)N[C@@H](CCCCN)C(=O)N[C@@H](CC(C)C)C(=O)N[C@@H](CCCNC(=N)N)C(=O)N[C@@H](CCCCN)C(=O)N[C@@H](Cc1c[nH]cn1)C(=O)N[C@@H](CC(N)=O)C(=O)N[C@H]1CSSC[C@@H](C(=O)N[C@@H](CCSC)C(=O)N2CCC[C@H]2C(=O)N[C@@H](CC(C)C)C(=O)N[C@@H](Cc2c[nH]cn2)C(=O)N[C@@H](CO)C(=O)N[C@@H](CCCNC(=N)N)C(=O)N[C@H](C(=O)N2CCC[C@H]2C(=O)N[C@@H](Cc2ccccc2)C(=O)N2CCC[C@H]2C(=O)O)C(C)C)NC(=O)[C@H](CCCNC(=N)N)NC(=O)[C@H](CCCNC(=N)N)NC(=O)[C@H](CCC(N)=O)NC(=O)[C@H](CC(C)C)NC1=O [Elabela-32] | −1.0 ± 0.1 | 1.4 ± 0.1 | 1978.4 | 3.3 | −0.4 ± 0.1 | 6,138.2 | 3.8 | −0.1 ± 0.1 | 1.3 ± 0.2 | 1,580.1 | 3.2 | −2.0 ± 0.4 | −1.8 ± 0.5 | 1.1 | 0.0 ± 0.6 ^a | Log (Bias) ([1]; listed as ELA-32): 3.3 ± 0.2; bias over calcium release ([1]; APJ–β-arrestin 1): > 1,500 fold; APJ–β-arrestin 1 BRET signal (in words) ([1]; dose-response, 15 min): significantly higher than those induced by the other peptide ligands; Log (Bias) ([2]; listed as ELA-32): 3.8 ± 0.2; bias over calcium release ([2]; APJ–β-arrestin 2): > 6,000 fold; Log (Bias) ([3]; listed as ELA-32): 3.2 ± 0.3; bias over calcium release ([3]; β-arrestin 1–AP2): > 1,500 fold
2 | CSCC[C@H](NC(=O)[C@@H]1CSSC[C@H](NC(=O)[C@H](CC(N)=O)NC(=O)[C@H](Cc2c[nH]cn2)NC(=O)[C@H](CCCCN)NC(=O)[C@H](CCCNC(=N)N)NC(=O)[C@@H](N)CC(C)C)C(=O)N[C@@H](CC(C)C)C(=O)N[C@@H](CCC(N)=O)C(=O)N[C@@H](CCCNC(=N)N)C(=O)N[C@@H](CCCNC(=N)N)C(=O)N1)C(=O)N1CCC[C@H]1C(=O)N[C@@H](CC(C)C)C(=O)N[C@@H](Cc1c[nH]cn1)C(=O)N[C@@H](CO)C(=O)N[C@@H](CCCNC(=N)N)C(=O)N[C@H](C(=O)N1CCC[C@H]1C(=O)N[C@@H](Cc1ccccc1)C(=O)N1CCC[C@H]1C(=O)O)C(C)C [Elabela-21] | −1.9 ± 0.1 | 0.6 ± 0.1 | 146.2 | 2.2 ± 0.2 | −2.1 ± 0.1 | 73.6 | 1.9 ± 0.2 | −1.9 ± 0.1 | −0.5 ± 0.2 | 13.2 | 1.1 ± 0.3 | −2.1 ± 0.4 | −1.9 ± 0.5 | 0.5 | −0.3 ± 0.6 ^a | Δlog (τ/KA) ([2]; APJ-β-arrestin 2, relative to Apelin-13): 0.3 ± 0.1

From paper PMC7970304, “The Effects of Apelin and Elabela Ligands on Apelin Receptor Distinct Signaling Profiles” (Frontiers in Pharmacology, 2021)
